In US20090175995A1, “CONTROL OF FLAVOR CHARACTERISTICS OF AND INDICATOR OF FRESHNESS IN FRUIT JUICE” (TROPICANA PRODUCTS, INC., priority 2007, published 2009):
Like-named read-outs stand apart in the source and are kept apart here.

How the values were obtained:
Bitter Taste = assay: Bitter taste recognition threshold, trained sensory panel; format: in vivo, human
Protocol: To study the influence of the chirality of C(17) on the sensory activity of these limonoids, bitter threshold concentrations were determined for limonin and C17-epilimonin.
(§1) To make these evaluations, eleven assessors (four women and seven men, age 23-39 years), who participated for at least two years in weekly training sessions, determined taste recognition threshold concentrations in bottled water (pH 5.1) by means of a three-alternative forced-choice method with ascending concentrations of the stimulus following the procedure reported previously in Stark, T.; Barenther, S.; Hofmann, T. (2005) J. Agric. Food Chem. 53:5407-5418.

Astringency Taste = assay: Astringency taste threshold, sensory; format: in vivo, human
Description: The inventors have discovered that, as with bitterness, a plurality of compounds present in orange juice below the astringency threshold contributes to the astringent mouth feel of the juice.
as §1

[1] = Incubation of limonin in aqueous solution, formation of isolimonin; format: physicochemical; settings: pH of 3
[2] = Non-enzymatic release of limonin from limonin-17-β-D-glucopyranoside in aqueous solution on storage (HPLC-MS/MS); format: physicochemical; settings: for limonin released from the glucopyranoside: up to 14 weeks in the dark; for limonin released from its precursor (yield): 14 weeks in the dark
Protocol: To investigate the putative non-enzymatic release of limonin from limonin-17-β-D-glucopyranoside during storage of orange juice, aqueous solutions of the glucopyranoside adjusted to the pH value of a freshly squeezed orange juice (pH 3.5) or to the range of pH values found for orange juice concentrates (pH 2.0 and 3.0) were held at 20° C. for up to 14 weeks in the dark. At regular time intervals, aliquots were withdrawn from the model solutions and analyzed for the amount of limonin liberated from the glucopyranoside by means of HPLC-MS/MS operating in the MRM mode. […] For example, 0.85% mol of limonin was released from the glucopyranoside when maintained at pH 2.0, whereas at pH 3.5 only 0.25% of the bitter compound was generated.
In order to investigate the influence of the temperature on limonin generation, aqueous solutions of the glucopyranoside adjusted to pH 3.0 were maintained at 4, 20, and 30° C. for up to 14 weeks in the dark. At regular time intervals, the amounts of limonin were determined by means of HPLC-MS/MS operating in the MRM mode. […] For example, limonin was released from its precursor in a yield of nearly 4.0% when incubated at 30° C., whereas only 0.2% of the bitter compound was detectable after storing the precursor solution at 4° C. for 14 weeks.
In particular, aqueous solutions of limonin-17-β-D-glucopyranoside (0.35 mg/L) adjusted to pH value of 2.0, 3.0, and 3.5, respectively, by adding trace amounts of hydrochloric acid (1 mol/L) were maintained at different temperatures (4, 20, 30° C.) for up to 14 weeks in closed vials in the dark. At regular time intervals, samples (5 μL) were withdrawn with a syringe and were analyzed for the generation of limonin by means of LC-MS/MS on a Synergi Fusion, 150×2 mm i.d., 4 μm column (Phenomenex). To achieve this, chromatography was performed with a flow rate of 250 μL/min starting with a mixture (80/20, v/v) of 0.1% aqueous formic acid and acetonitrile, increasing the acetonitrile content to 40% within 10 min, then to 80% within 5 min, held for 5 min, and, finally, to 100% within 5 min. Using negative electrospray ionization, limonin was analyzed in the multiple reaction monitoring (MRM) mode using the mass transition m/z 469→229. Quantitative analysis was performed by comparing the peak areas obtained for the mass trace with those of defined standard solutions of limonin in methanol.

[3] = Homo sapiens; read-out: Bitter Taste Threshold
[4] = Homo sapiens; read-out: Astringency Taste Threshold

| Molecule | Bitter Taste Threshold (Bitter Taste; in vivo) [µmol/L] | Astringency Taste Threshold (Astringency Taste; in vivo) [µmol/L] | minimal effective concentration (Bitter Taste; [3]) [µM] | minimal effective concentration (Astringency Taste; [4]) [µM] | also measured |
| --- | --- | --- | --- | --- | --- |
| 5,6,7,3′,4′-pentamethoxyflavoneglucoside | 61 | 21 | – | – | – |
| 5,6,7,8,3′,4′-hexamethoxyflavoneglucoside | 78 | 20 | – | – | – |
| COc1ccc(-c2oc3cc(OC)c(OC)c(OC)c3c(=O)c2OC)cc1OC [3,5,6,7,3′,4′-hexamethoxyflavone] | – | – | 19 | 9 | – |
| COc1ccc(-c2oc3c(OC)c(OC)c(OC)c(OC)c3c(=O)c2OC)cc1OC [3,5,6,7,8,3′,4′-heptamethoxyflavone] | – | – | 24 to 31 | 4 to 5 | – |
| COc1ccc(-c2oc3c(OC)c(OC)cc(OC)c3c(=O)c2OC)cc1OC [3,5,7,8,3′,4′-hexamethoxyflavone] | – | – | > 250 | 125 | – |
| COc1cc(-c2cc(=O)c3c(OC)c(OC)c(OC)c(OC)c3o2)ccc1O [4′-hydroxy-3′,5,6,7,8-pentamethoxyflavone] | – | – | 25 | 6 | – |
| COc1ccc(-c2oc3cc(OC)c(OC)c(OC)c3c(=O)c2O[C@@H]2O[C@H](CO)[C@@H](O)[C@H](O)[C@H]2O)cc1OC [5,6,7,3′,4′-pentamethoxy-flavone-3-O-β-D-glucopyranoside] | 61 | 21 | – | – | – |
| COc1ccc(-c2cc(=O)c3c(OC)c(OC)c(OC)cc3o2)cc1OC [5,6,7,3′,4′-pentamethoxyflavone] | – | – | 56 | 24 | – |
| COc1ccc(-c2cc(=O)c3c(OC)c(OC)c(OC)cc3o2)cc1 [5,6,7,4′-tetramethoxyflavone] | – | – | – | – | minimal effective concentration (Astringency Taste; Homo sapiens, read-out: Astringency Taste Threshold): 31 µM |
| COc1ccc(-c2oc3c(OC)c(OC)c(OC)c(OC)c3c(=O)c2O[C@@H]2O[C@H](CO)[C@@H](O)[C@H](O)[C@H]2O)cc1OC [5,6,7,8,3′,4′-Hexamethoxyflavone-3-O-β-D-glucopyranoside] | 78 | 20 | – | – | – |
| COc1ccc(-c2cc(=O)c3c(OC)c(OC)c(OC)c(OC)c3o2)cc1OC [5,6,7,8,3′,4′-hexamethoxyflavone] | – | – | 103 | 51 | – |
| COc1ccc(-c2cc(=O)c3c(OC)c(OC)c(OC)c(OC)c3o2)cc1 [5,6,7,8,4′-pentamethoxyflavone] | – | – | 93 | 19 | – |
| COc1ccc(-c2cc(=O)c3c(OC)cc(OC)c(OC)c3o2)cc1OC [5,7,8,3′,4′-pentamethoxyflavone] | – | – | 32 | 13 | – |
| COc1ccc(-c2cc(=O)c3c(OC)cc(OC)c(OC)c3o2)cc1 [5,7,8,4′-tetramethoxyflavone] | – | – | > 120 | 44 | – |
| COc1ccc2c(=O)cc(-c3ccc(OC)c(OC)c3)oc2c1 [7,3′,4′-trimethoxyflavone] | – | – | > 400 | 15 | – |
| COc1ccc(-c2cc(=O)c3ccc(OC)c(OC)c3o2)cc1OC [7,8,3′,4′-tetramethoxyflavone] | – | – | > 400 | 44 | – |
| CC1(C)OC(=O)C[C@H](O)[C@]2(C)[C@H]3CC[C@@]4(C)[C@H](c5ccoc5)OC(=O)[C@H]5O[C@]54[C@]3(C)C(=O)C[C@@H]12 [Deacetylnomilin] | >106 | 13.2 | – | – | – |
| CC1(C)O[C@H]2CC(=O)OC[C@]23[C@H]2CC[C@@]4(C)[C@H](c5ccoc5)OC(=O)[C@H]5O[C@]54[C@]2(C)C(=O)C[C@@H]13 [Limonin, reference compound] | – | – | 4 | 4 | bitter threshold concentration (Bitter Taste; bottled water pH 5.1, three-alternative forced-choice, eleven assessors): 4.0 µmol/L; times more bitter than caffeine (Bitter Taste; relative to caffeine): ~200 times; times more bitter than catechin (Bitter Taste; relative to catechin): 150 times; formation of isolimonin on incubation (direct epimerization) [1]: does not produce significant quantity of isolimonin |
| CC1(C)O[C@H]2CC(=O)OC[C@]23[C@H]2CC[C@@](C)([C@@H](O[C@@H]4O[C@H](CO)[C@@H](O)[C@H](O)[C@H]4O)c4ccoc4)[C@@]4(O[C@@H]4C(=O)O)[C@]2(C)C(=O)C[C@@H]13 [Limonin-17-β-D-glucopyranoside] | 106 | 17 | – | – | limonin released from the glucopyranoside ([2]; pH 2.0, 20° C.): 0.85 % mol; limonin released from its precursor (yield) ([2]; pH 3.0, 4° C.): 0.2%; limonin released from its precursor (yield) ([2]; pH 3.0, 30° C.): ~4.0%; limonin released from the glucopyranoside ([2]; pH 3.5, 20° C.): 0.25% |
| CC(=O)O[C@H]1CC(=O)OC(C)(C)[C@@H]2CC(=O)[C@]3(C)[C@H](CC[C@@]4(C)[C@H](c5ccoc5)OC(=O)[C@H]5O[C@]543)[C@@]12C [Nomilin] | – | – | – | – | minimal effective concentration (Bitter Taste; Homo sapiens, read-out: Bitter Taste Threshold): 13 µM; times more bitter than caffeine (Bitter Taste; relative to caffeine): ~150 times; times more bitter than catechin (Bitter Taste; relative to catechin): 45 times |
| C17-epilimonin [Isolimonin] | – | – | – | – | bitter threshold concentration (Bitter Taste; water; bottled water pH 5.1, three-alternative forced-choice, eleven assessors): 10.0 µg/L; Astringency Taste Threshold (Astringency Taste): 10 mg/L |
| Deacetylnomilinic acid-17-β-D-glucopyranoside | 68 | 27 | – | – | – |
| Epiisoobacunoic acid 17-β-D-glucopyranoside | 42 | 16 | – | – | – |
| Nomilin acid β-glpc | >800 | – | – | – | – |
| Nomilin β-glpc | >700 | – | – | – | – |
| Obacunon β-glpc | 49 | – | – | – | – |
